Measured values published in patent US10568900B1, “Androgen effectors” (priority 2013, dated 2020).
“Also recorded” adds a separate entry of the source. Like-named read-outs stand apart in the source and are kept apart here.

Columns and labels:
[1] = molecular target: T1, 5-alpha-reductase (Rattus norvegicus, UniProt P24008); test: 5-alpha-reductase activity, conversion of testosterone to dihydrotestosterone in microsomal homogenized rat livers; type: biochemical
T1 construct: in microsomal homogenized rat livers; from tissue; host or cells: rat liver microsomes
T1 sequence (P24008 1-259): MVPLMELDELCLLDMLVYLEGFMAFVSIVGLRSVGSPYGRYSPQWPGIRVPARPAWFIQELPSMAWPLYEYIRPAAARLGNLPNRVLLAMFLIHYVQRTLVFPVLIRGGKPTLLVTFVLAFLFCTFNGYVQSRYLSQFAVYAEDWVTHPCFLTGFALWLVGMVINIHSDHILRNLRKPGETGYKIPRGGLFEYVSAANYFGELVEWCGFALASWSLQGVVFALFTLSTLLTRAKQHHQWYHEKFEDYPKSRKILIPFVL
Text: Finasteride (MK906 or Proscar) was used as the positive control inhibitor.

[2] = molecular target: T2, human androgen receptor (hAR) (Homo sapiens, UniProt P10275); test: Human Androgen Receptor (hAR) assay in recombinant yeast strain BJ1991 PGKhAR; type: cell-based
T2 construct: expressed in transfected cells; host or cells: recombinant yeast strain BJ1991 PGKhAR
T2 sequence (P10275 1-920): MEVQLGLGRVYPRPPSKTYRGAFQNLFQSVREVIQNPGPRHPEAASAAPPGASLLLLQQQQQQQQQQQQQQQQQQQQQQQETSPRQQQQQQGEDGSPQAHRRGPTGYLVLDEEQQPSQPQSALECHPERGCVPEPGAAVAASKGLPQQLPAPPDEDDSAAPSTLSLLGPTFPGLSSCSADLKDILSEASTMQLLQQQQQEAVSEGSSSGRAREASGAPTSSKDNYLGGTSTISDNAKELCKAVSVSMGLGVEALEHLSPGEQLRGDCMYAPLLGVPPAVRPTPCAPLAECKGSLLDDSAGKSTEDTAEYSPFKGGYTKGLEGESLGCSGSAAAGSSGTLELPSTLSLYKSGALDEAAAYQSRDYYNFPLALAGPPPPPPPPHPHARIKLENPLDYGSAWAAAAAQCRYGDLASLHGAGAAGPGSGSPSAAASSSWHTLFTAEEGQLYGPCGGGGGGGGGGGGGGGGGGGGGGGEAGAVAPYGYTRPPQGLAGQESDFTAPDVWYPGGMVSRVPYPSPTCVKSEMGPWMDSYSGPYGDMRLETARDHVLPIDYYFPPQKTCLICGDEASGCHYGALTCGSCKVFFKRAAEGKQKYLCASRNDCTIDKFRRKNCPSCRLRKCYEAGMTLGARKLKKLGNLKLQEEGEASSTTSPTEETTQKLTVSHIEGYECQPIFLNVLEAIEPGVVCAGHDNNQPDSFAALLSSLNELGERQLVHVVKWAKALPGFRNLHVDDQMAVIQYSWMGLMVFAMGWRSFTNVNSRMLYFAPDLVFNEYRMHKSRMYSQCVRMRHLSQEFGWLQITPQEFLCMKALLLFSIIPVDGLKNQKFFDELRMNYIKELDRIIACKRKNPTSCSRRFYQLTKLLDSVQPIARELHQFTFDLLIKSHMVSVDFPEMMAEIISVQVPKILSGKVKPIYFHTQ
Text: Human Androgen Receptor Assay (hAR) in recombinant yeast strain BJ1991 PGKhAR which contains the human androgen receptor (hAR) gene and a built-in color-indicator to androgenicity via an androgen response element (ARE) which is linked to a gene encoding beta-galactosidase, which hydrolyses end terminal B-galactopyranosyl residues on a chlorophenol red-B-D-galactopyranoside releasing colored indicator, chlorophenol red. Thus, test solutions turn further red with androgenicity.

[3] = test system: yeast cells; details: cited from earlier work
[4] = cited from earlier work
[5] = molecular target: T3, androgen receptor (AR) (Rattus norvegicus, UniProt P15207); test: Androgen Receptor Binding Assay (rat prostatic cytosol), displacement of radiolabeled testosterone
T3 construct: rat prostatic cytosol as a source of androgen receptors; from tissue; host or cells: rat prostate cytosol
T3 sequence (P15207 1-902): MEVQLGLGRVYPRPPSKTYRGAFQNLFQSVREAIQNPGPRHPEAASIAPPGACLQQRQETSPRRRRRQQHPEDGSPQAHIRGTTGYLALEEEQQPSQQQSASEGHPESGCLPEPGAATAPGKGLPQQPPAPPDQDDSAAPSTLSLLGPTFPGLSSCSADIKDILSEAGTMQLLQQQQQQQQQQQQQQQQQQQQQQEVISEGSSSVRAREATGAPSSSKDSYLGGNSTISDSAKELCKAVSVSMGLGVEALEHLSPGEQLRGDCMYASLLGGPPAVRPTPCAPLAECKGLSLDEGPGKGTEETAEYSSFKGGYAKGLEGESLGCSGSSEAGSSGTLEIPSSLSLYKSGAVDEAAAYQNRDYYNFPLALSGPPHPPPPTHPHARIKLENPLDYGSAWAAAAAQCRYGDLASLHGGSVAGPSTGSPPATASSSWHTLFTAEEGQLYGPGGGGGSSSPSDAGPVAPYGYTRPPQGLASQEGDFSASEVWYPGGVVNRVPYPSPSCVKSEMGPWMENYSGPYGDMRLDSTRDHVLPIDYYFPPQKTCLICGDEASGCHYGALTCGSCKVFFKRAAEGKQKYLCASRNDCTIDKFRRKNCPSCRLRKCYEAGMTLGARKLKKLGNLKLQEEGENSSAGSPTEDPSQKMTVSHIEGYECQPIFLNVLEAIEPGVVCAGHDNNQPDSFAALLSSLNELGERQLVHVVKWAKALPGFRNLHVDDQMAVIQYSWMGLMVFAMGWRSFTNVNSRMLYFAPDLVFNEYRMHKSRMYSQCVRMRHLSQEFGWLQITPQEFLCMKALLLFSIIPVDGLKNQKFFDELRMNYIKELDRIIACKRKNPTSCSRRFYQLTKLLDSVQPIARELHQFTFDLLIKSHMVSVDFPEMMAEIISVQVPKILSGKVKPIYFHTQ
Text: The Androgen Receptor Binding Assay in rat prostatic cytosol as a source of androgen receptors identifies chemicals that have the potential to interact with the androgen receptor (AR) in vitro. […] The biological action of androgens is mediated through their interaction with the AR; androgens have no hormonal activity in the absence of a functional AR. Due to a high degree of DNA sequence conservation, substances that bind the AR from rats are presumed to be capable of binding the AR in humans. (Kelce, 1998; Betney, 2003). This screening assay measures the receptor-binding affinity of chemicals by evaluating their ability to displace a bound reference androgen, showing the degree of competition for normal androgen binding and activity, either acting as an agonist or antagonist (which is not discerned by the assay).

[6] = molecular target: T4, ERβ (Homo sapiens, UniProt Q92731); details: cited from earlier work
T4 construct: host or cells: yeast cells (cited work)

[7] = molecular target: T5, ERα (Homo sapiens, UniProt P03372); details: cited from earlier work
T5 construct: host or cells: yeast cells (cited work)
T5 sequence (P03372 1-595): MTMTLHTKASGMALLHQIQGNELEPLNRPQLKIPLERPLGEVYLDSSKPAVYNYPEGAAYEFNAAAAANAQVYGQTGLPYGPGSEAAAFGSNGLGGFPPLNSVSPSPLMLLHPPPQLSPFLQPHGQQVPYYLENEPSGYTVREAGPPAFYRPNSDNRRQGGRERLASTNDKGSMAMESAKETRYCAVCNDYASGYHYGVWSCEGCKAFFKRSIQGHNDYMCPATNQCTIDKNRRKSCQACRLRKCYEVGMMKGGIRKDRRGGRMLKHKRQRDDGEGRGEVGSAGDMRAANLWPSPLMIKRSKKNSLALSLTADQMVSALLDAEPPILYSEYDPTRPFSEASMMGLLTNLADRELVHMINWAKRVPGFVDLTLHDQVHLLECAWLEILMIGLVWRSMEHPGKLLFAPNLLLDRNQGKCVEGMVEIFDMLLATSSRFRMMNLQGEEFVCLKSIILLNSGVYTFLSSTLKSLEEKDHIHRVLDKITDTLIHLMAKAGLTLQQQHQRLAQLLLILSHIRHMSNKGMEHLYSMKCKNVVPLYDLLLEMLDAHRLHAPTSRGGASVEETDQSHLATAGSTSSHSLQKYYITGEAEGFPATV

[8] = rat liver microsomes, read-out: *50% Inhibition (converted)
[9] = tested at 500 μg/ml, rat prostatic cytosol

T4 sequence (Q92731 whole entry, species assumed): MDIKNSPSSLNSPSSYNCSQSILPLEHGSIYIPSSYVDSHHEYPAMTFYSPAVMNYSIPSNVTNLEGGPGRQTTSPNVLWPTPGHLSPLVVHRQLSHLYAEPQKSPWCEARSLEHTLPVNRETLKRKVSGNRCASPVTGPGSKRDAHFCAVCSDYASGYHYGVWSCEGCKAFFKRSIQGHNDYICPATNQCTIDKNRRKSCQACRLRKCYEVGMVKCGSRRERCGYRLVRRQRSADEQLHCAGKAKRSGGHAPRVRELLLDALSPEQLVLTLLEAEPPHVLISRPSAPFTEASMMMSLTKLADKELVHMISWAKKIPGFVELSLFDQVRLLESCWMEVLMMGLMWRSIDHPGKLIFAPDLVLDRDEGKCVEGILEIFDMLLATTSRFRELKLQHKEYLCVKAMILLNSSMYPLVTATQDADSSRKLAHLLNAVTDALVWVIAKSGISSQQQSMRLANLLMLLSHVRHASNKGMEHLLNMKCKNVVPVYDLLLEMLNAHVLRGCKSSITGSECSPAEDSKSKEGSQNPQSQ

Compound: CC(C)(C)NC(=O)[C@H]1CC[C@H]2[C@@H]3CC[C@H]4NC(=O)C=C[C@]4(C)[C@H]3CC[C@]12C [Finasteride Proscar Control, Finasteride, reference compound]
- IC50 ([1]; positive control, read-out: IC50 (converted)): ~0.188 µM
- IC50 [1, 8]: 0.188 µM

Compound: CC1(C)C=Cc2c(ccc3c2OC[C@@H](c2ccc(O)cc2O)C3)O1 [#4 Glabridin, Glabridin]
- *hAG (agonist) ([2]; tested at 5 μg/ml): Inactive
- *hAT (antagonist) ([2]; tested at 5 μg/ml): Inactive
- 5-alpha-reductase inhibition, in words [1]: significant 5ARI activity; also recorded: potent dihydrotestosterone reductase inhibitors
- 5-alpha-reductase inhibition, in words ([1]; listed as #4): interfere with the activity of 5-alpha-reductase
- IC50 [1, 8]: 89.4 µM
- concentration toxic to yeast cells [3]: above 1×10^−4 M
- solubility in water, in words [4]: insoluble in water
- androgen receptor binding / interference with testosterone binding, in words [5]: does not interfere with normal testosterone to androgen receptor binding
- inhibition at 500 µg/mL ([5]; tested at 500 μg/ml, rat prostatic cytosol, read-out: *Specific Binding % Inhibition): 0%
- estrogenic response (agonism), in words ([6]; 1×10^−7 to 1×10^−4 M): does not exert any estrogenic response
- ERβ antagonism, in words [6]: did not have antagonistic properties
- estrogenic response (agonism), in words ([7]; 1×10^−7 to 1×10^−4 M): does not exert any estrogenic response
- inhibition of the E2 response ([7]; at 6×10^−6 M, without being toxic towards yeast cells): ~80%
- ERα antagonism, in words [7]: ERα-selective antagonist
- reduction of estrogenic E2 [7]: 80%

Compound: CC1(C)C=Cc2c(O)ccc(C3=Cc4ccc(O)cc4OC3)c2O1 [#1 Glabrene, Glabrene]
- *hAG (agonist) ([2]; tested at 25 μg/ml): Inactive
- *hAT (antagonist) ([2]; tested at 25 μg/ml): Inactive
- 5-alpha-reductase inhibition, in words [1]: significant 5ARI activity; also recorded: potent dihydrotestosterone reductase inhibitors
- 5-alpha-reductase inhibition, in words ([1]; listed as #1): interfere with the activity of 5-alpha-reductase
- IC50 ([1]; read-out: IC50 (5ARI) (converted)): 15.5 µM
- inhibition at 125 µg/mL ([5]; tested at 125 μg/ml, rat prostatic cytosol, read-out: *Specific Binding % Inhibition): 21%

Compound: C[C@@H](CC[C@@]1(O)O[C@H]2C[C@H]3[C@@H]4CC=C5C[C@@H](O[C@@H]6O[C@H](CO)[C@@H](O)[C@H](O[C@@H]7O[C@H](CO)[C@@H](O)[C@H](O)[C@H]7O)[C@H]6O[C@@H]6O[C@@H](C)[C@H](O)[C@@H](O)[C@H]6O)CC[C@]5(C)[C@H]4CC[C@]3(C)[C@H]2[C@@H]1C)CO[C@@H]1O[C@H](CO)[C@@H](O)[C@H](O)[C@H]1O [#9 Protogracillin, Protogracillin]
- hAR assay activity, in words [2]: testosterone agonist activity
- receptor affinity relative to cyproterone's binding affinity [2]: 1/200
- *hAG (agonist) ([2]; tested at 100 μg/ml): Active (2)
- *hAT (antagonist) ([2]; tested at 100 μg/ml): Inactive
- 5-alpha-reductase inhibition, in words [1]: did not inhibit 5AR
- androgen receptor binding / interference with testosterone binding, in words ([5]; listed as Protogracillin): does not interfere with normal testosterone binding to receptor
- androgen receptor binding / interference with testosterone binding, in words ([5]; listed as protogracillin): did not interfere with regular testosterone receptor binding
- *Specific Binding % Inhibition [5, 9]: 0%

Compound: C=CC(C)(C)c1cc(/C=C/C(=O)c2ccc(O)cc2)c(OC)cc1O [#5 Licochalcone A, Licochalcone A]
- *hAG (agonist) ([2]; tested at 5 μg/ml): Inactive
- *hAT (antagonist) ([2]; tested at 5 μg/ml): Inactive
- 5-alpha-reductase inhibition, in words ([1]; listed as #5): interfere with the activity of 5-alpha-reductase
- 5-alpha-reductase inhibition, in words ([1]; listed as Licochalcone A): potent dihydrotestosterone reductase inhibitors
- 5-alpha-reductase inhibition, in words ([1]; listed as licochalcone A): significant 5ARI activity
- *50% Inhibition ([1]; rat liver microsomes): 7 µg/mL
- *Specific Binding % Inhibition [5, 9]: 21%

Compound: Leucoanthocyanidin [#6 Leucoanthocyanidin]
- *hAG (agonist) ([2]; tested at 500 μg/ml): Clear
- *hAT (antagonist) ([2]; tested at 500 μg/ml): Clear
- 5-alpha-reductase inhibition, in words [1]: significant 5ARI activity
- 5-alpha-reductase inhibition, in words ([1]; listed as #6): interfere with the activity of 5-alpha-reductase
- *50% Inhibition ([1]; rat liver microsomes): 30 µg/mL
- *Specific Binding % Inhibition [5, 9]: 28%

Compound: CC1=CCC(C(C)(C)O)CC1 (stereo not drawn) [alpha-terpineol]
- 5-alpha-reductase inhibition, in words [1]: significant 5ARI activity
